Source: patent US7005526B2, “Thioether derivatives” (Hoffmann-La Roche Inc., priority 2004, dated 2006)

Target: T1, HER-2 (Homo sapiens, UniProt P04626)
T1 construct: endogenous in cells; host or cells: Calu-3 (ATCC HTB-55) human non-small-cell lung cancer cells
Test: Inhibition of HER-2 phosphorylation in Calu-3 tumor cell line
Format: cell-based
Settings: compound concentration 1 μM; Calu-3 cells, 16 h incubation; pY 1248 in HER-2; relative to DMSO control; read-out: Percent inhibition of HER-2-phosphorylation
Description: Inhibition of HER-2 Phosphorylation in Calu-3 Tumor Cell Line
2×10^5 Calu-3 (ATTC HTB-55) cells per well were plated in a 12-well plate. After 4 days cells were starved for 16 h in Dulbecco's Modified Eagle Medium (DMEM)/0.5% Fetal Calf Serum (FCS)/1% Glutamine. During this 16 h period cells were incubated with a solution of the test compound in dimethylsulfoxide (DMSO), so that the final concentration of the compound is 1 μM and the final volume of DMSO is 0.5%. Afterwards cells were lysed in lyses buffer containing 1% octyl phenol ethoxylate (Triton®X-100), 10% Glycerol, 1 mM Ethylene glycol-bis(2-aminoethylether)-N,N,N′,N′-tetraacetic acid (EGTA), 1.5 mM MgCl2, 150 mM NaCl, 50 mM 4-(2-hydroxyethyl)-1-piperazineethanesulfonic acid (HEPES) buffer pH 7.5, 1 mM Phenylmethylsulfonyl fluoride (PMSF), 10 μg/mL Aprotinin (a naturally occurring protein that is obtained and purified from cow's lungs) and […] Orthovanadate (Na3VO4). Cell lysates were analyzed on a Sodium Dodecyl Sulfate Polyacrylamide Gel Electrophoresis (SDS PAGE) and after transfer to a nitrocellulose membrane detected with an antibody specifically recognizing the pY 1248 in HER-2 (phosphorylated tyrosine residue 1248 of human epidermal receptor 2). After incubation with an anti rabbit antibody coupled to POD (Peroxidase available from Biorad, Munich, Germany) signals were detected by chemiluminescence (ECL, Amersham). Inhibition of HER-2 phosphorylation is calculated as percentage of the control, which is treated with DMSO only. This percentage was calculated according to the following formula: Inhibition in %=100−(Phosphorylated-HER2-Signal of Test Sample*100/Phosphorylated-HER2-Signal DMSO-control).

T1 sequence (P04626 23-1255): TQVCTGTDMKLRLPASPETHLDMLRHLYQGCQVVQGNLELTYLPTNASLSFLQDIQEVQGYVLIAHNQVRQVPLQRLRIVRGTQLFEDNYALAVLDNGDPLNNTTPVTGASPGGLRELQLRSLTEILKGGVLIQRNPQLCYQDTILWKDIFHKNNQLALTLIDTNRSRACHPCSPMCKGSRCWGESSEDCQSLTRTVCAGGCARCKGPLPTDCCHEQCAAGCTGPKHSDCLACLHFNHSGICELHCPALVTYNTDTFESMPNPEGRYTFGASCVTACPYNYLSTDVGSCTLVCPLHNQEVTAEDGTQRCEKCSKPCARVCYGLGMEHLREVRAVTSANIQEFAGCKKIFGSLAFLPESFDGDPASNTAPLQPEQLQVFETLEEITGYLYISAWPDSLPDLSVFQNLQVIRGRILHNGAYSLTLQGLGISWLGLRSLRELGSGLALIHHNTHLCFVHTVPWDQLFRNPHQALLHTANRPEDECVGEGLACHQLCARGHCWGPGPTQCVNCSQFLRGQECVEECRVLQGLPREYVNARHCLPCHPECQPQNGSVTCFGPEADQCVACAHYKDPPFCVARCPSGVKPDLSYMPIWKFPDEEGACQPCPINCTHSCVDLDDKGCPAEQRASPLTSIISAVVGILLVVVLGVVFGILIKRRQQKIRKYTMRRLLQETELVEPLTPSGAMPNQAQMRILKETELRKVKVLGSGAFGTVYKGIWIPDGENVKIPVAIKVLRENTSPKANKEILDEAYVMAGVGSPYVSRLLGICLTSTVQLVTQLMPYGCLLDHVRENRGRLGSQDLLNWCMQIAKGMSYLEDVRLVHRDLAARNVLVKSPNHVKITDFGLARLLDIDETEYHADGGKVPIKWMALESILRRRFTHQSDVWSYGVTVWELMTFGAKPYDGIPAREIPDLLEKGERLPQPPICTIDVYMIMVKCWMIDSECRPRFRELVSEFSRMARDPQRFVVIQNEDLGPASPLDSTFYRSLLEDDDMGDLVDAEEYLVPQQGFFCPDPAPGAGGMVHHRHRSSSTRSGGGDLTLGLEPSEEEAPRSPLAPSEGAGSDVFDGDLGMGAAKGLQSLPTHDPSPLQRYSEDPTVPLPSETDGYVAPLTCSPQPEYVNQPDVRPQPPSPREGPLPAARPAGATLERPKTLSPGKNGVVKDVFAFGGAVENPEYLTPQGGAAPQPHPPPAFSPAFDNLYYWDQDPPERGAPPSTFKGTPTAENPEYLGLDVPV

Which inhibition at 1 µM does the source give for `FC(F)(F)c1ccc(C=Cc2nc(COc3ccc(CSCCn4ccnn4)cc3)co2)cc1` [Example 6, 1-[2-(4-{2-[2-(4-Trifluoromethyl-phenyl)-vinyl]-oxazol-4-ylmethoxy}-benzylsulfanyl)-ethyl]-1H-[1,2,3]triazole] here?
The inhibition at 1 µM was 55 to 65%.

With `Fc1cc(C(F)(F)F)ccc1/C=C/c1nc(COc2ccc(CSCCn3ccnn3)cc2)co1` [Example 7, 1-[2-(4-{2-[2-(E)-(2-Fluoro-4-trifluoromethyl-phenyl)-vinyl]-oxazol-4-ylmethoxy}-benzylsulfanyl)-ethyl]-1H-[1,2,3]triazole] as the molecule, how does the inhibition at 1 µM read?
The inhibition at 1 µM was greater than 80%.

Which inhibition at 1 µM does the source give for `Fc1cc(Cl)ccc1/C=C/c1nc(COc2ccc(CSCCn3ccnn3)cc2)co1` [Example 9, 1-[2-(4-{2-[2-(E)-(4-Chloro-2-fluoro-phenyl)-vinyl]-oxazol-4-ylmethoxy}-benzylsulfanyl)-ethyl]-1H-[1,2,3]triazole] here?
The inhibition at 1 µM was 65 to 80%.

Which inhibition at 1 µM does the source give for `FC(F)(F)Oc1ccc(C=Cc2nc(COc3ccc(CSCCn4ccnn4)cc3)co2)cc1` [Example 1, 1-[2-(4-{2-[2-(4-Trifluoromethoxy-phenyl)-vinyl]-oxazol-4-ylmethoxy}-benzylsulfanyl)-ethyl]-1H-[1,2,3]triazole] here?
The inhibition at 1 µM was 65 to 80%.

Which inhibition at 1 µM does the source give for `O=S(=O)(CCn1ccnn1)Cc1ccc(OCc2coc(/C=C/c3ccc(C(F)(F)F)cc3F)n2)cc1` [Example 10, 1-[2-(4-{2-[2-(E)-(2-Fluoro-4-trifluoromethyl-phenyl)-vinyl]-oxazol-4-ylmethoxy}-phenylmethanesulfonyl)-ethyl]-1H-[1,2,3]triazole] here?
The inhibition at 1 µM was 55 to 65%.

Which inhibition at 1 µM does the source give for `[O-][S+](CCn1ccnn1)Cc1ccc(OCc2coc(/C=C/c3ccc(OC(F)(F)F)cc3)n2)cc1` (centres unmarked) [Example 3, 1-[2-(4-{2-[2-(E)-(4-Trifluoromethoxy-phenyl)-vinyl]-oxazol-4-ylmethoxy}-phenylmethanesulfinyl)-ethyl]-1H-[1,2,3]triazole] here?
The inhibition at 1 µM was greater than 80%.

For `[O-][S+](CCn1ccnn1)Cc1ccc(OCc2coc(/C=C/c3ccc(C(F)(F)F)cc3F)n2)cc1` (centres unmarked) [Example 11, 1-[2-(4-{2-[2-(E)-(2-Fluoro-4-trifluoromethyl-phenyl)-vinyl]-oxazol-4-ylmethoxy}-phenylmethanesulfinyl)-ethyl]-1H-[1,2,3]triazole], which inhibition at 1 µM is on record?
Its inhibition at 1 µM is greater than 80%.

Test system: not given
Test: not given
Settings: not given

With `[O-][S+](CCn1ccnn1)Cc1ccc(OCc2coc(C=Cc3ccc(SC(F)(F)F)cc3)n2)cc1` (centres unmarked) [Example 4, 1-[2-(4-{2-[2-(4-Trifluoromethylsulfanyl-phenyl)-vinyl]-oxazol-4-ylmethoxy}-phenylmethanesulfinyl)-ethyl]-1H-[1,2,3]triazole] as the molecule, how does the melting point read?
Its melting point is 182 to 184 °C.
